Assay results reported in PubChem BioAssay AID248 (DTP/NCI, 2004).
Toxic doses and inconclusive results are not listed. Rule as the data show it: active = T/C of 150% or more; inactive = T/C below 125%.

System: L1210 leukemia ip in BDF1 mice, survival T/C
Test: NCI In Vivo Anticancer Drug Screen. Data for tumor model L1210 Leukemia (intraperitoneal) in B6D2F1 (BDF1) mice
Conditions: endpoint: mean survival time, higher = longer survival
Procedure, shortened: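 Mice bearing the transplanted tumor received compound or vehicle. Survival of the treated group was divided by that of the vehicle-treated control group to give the ratio.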

[1] = dose: 100.0 mg/kg/injection, schedule: Q01DX001 (ip), vehicle: saline with Tween-80
[2] = dose: 200.0 mg/kg/injection, schedule: Q01DX001 (ip), vehicle: saline with Tween-80
[3] = dose: 400.0 mg/kg/injection, schedule: Q01DX001 (ip), vehicle: saline with Tween-80
[4] = dose: 100.0 mg/kg/injection, schedule: Q01DX009 (ip), vehicle: saline with Tween-80
[5] = dose: 100.0 mg/kg/injection, schedule: Q04DX003 (ip), vehicle: saline with Tween-80
[6] = dose: 200.0 mg/kg/injection, schedule: Q01DX009 (ip), vehicle: saline with Tween-80
[7] = dose: 200.0 mg/kg/injection, schedule: Q04DX003 (ip), vehicle: saline with Tween-80
[8] = dose: 400.0 mg/kg/injection, schedule: Q01DX009 (ip), vehicle: saline with Tween-80
[9] = dose: 400.0 mg/kg/injection, schedule: Q04DX003 (ip), vehicle: saline with Tween-80
[10] = dose: 100.0 mg/kg/injection, schedule: Q01DX009 (ip), vehicle: Klucel (hydroxypropylcellulose) (HPC)
[11] = dose: 100.0 mg/kg/injection, schedule: Q04DX003 (ip), vehicle: Klucel (hydroxypropylcellulose) (HPC)
[12] = dose: 200.0 mg/kg/injection, schedule: Q01DX009 (ip), vehicle: Klucel (hydroxypropylcellulose) (HPC)
[13] = dose: 200.0 mg/kg/injection, schedule: Q04DX003 (ip), vehicle: Klucel (hydroxypropylcellulose) (HPC)
[14] = dose: 400.0 mg/kg/injection, schedule: Q01DX009 (ip), vehicle: Klucel (hydroxypropylcellulose) (HPC)
[15] = dose: 400.0 mg/kg/injection, schedule: Q04DX003 (ip), vehicle: Klucel (hydroxypropylcellulose) (HPC)
[16] = dose: 100.0 mg/kg/injection, schedule: Q01DX001 (ip), vehicle: saline
[17] = dose: 200.0 mg/kg/injection, schedule: Q01DX001 (ip), vehicle: saline
[18] = dose: 400.0 mg/kg/injection, schedule: Q01DX001 (ip), vehicle: saline
[19] = dose: 100.0 mg/kg/injection, schedule: Q01DX001 (ip), vehicle: carboxymethylcellulose (CMC)
[20] = dose: 200.0 mg/kg/injection, schedule: Q01DX001 (ip), vehicle: carboxymethylcellulose (CMC)
[21] = dose: 400.0 mg/kg/injection, schedule: Q01DX001 (ip), vehicle: carboxymethylcellulose (CMC)

Measured: T/C

CC(=O)NC1C(C)OC2COC(C)(C)OC2C1C (stereo not given)
inactive: [1] 100 % of control | [2] 100 % of control | [3] 104 % of control

COc1ccc(NC(=O)CCCc2ccc(N(CCCl)CCCl)cc2)cc1
inactive: dose: 4.0 mg/kg/injection, schedule: Q12HX018 (ip), vehicle: other 106 % of control | dose: 6.0 mg/kg/injection, schedule: Q12HX018 (ip), vehicle: other 121 % of control | dose: 8.0 mg/kg/injection, schedule: Q12HX018 (ip), vehicle: other 110 % of control

CN(C)CCN(C)/N=N/c1nc[nH]c1C(N)=O
inactive: [1] 101 % of control | [4] 108 % of control | [5] 108 % of control | [2] 95 % of control | [6] 100 % of control | [7] 113 % of control | [3] 110 % of control | [8] 95 % of control | [9] 106 % of control

COc1ccccc1NC(=O)Nc1ccccc1OC
inactive: [10] 98 % of control | [11] 97 % of control | [12] 104 % of control | [13] 97 % of control | [14] 103 % of control | [15] 94 % of control

CC(=O)Nc1ccc(NC(=S)Nc2ccc(NC(C)=O)cc2)cc1
inactive: dose: 50.0 mg/kg/injection, schedule: Q01DX009 (ip), vehicle: Klucel (hydroxypropylcellulose) (HPC) 101 % of control | [10] 104 % of control | [11] 97 % of control | [13] 93 % of control

O=C1COC(=O)c2ccccc2O1
inactive: [5] 101 % of control | [7] 97 % of control | [9] 93 % of control

COc1cc(N=CN(C)C)cc(OC)c1OC
inactive: [10] 101 % of control | [11] 97 % of control | [12] 103 % of control | [13] 97 % of control | [14] 103 % of control | [15] 93 % of control

COc1cccc(CC(N)=O)c1OC
inactive: dose: 100.0 mg/kg/injection, schedule: Q01DX009 (ip), vehicle: saline 97 % of control | dose: 100.0 mg/kg/injection, schedule: Q04DX003 (ip), vehicle: saline 95 % of control | dose: 200.0 mg/kg/injection, schedule: Q01DX009 (ip), vehicle: saline 90 % of control | dose: 200.0 mg/kg/injection, schedule: Q04DX003 (ip), vehicle: saline 92 % of control | dose: 400.0 mg/kg/injection, schedule: Q04DX003 (ip), vehicle: saline 97 % of control

CCCC(C)OS(=O)(=O)c1ccc([N+](=O)[O-])cc1 (stereo not given)
inactive: dose: 100.0 mg/kg/injection, schedule: Q04DX002 (ip), vehicle: saline 101 % of control | dose: 200.0 mg/kg/injection, schedule: Q04DX002 (ip), vehicle: saline 90 % of control | dose: 400.0 mg/kg/injection, schedule: Q04DX002 (ip), vehicle: saline 92 % of control

O=C1C2C3c4ccccc4C(C2C(=O)N1c1ccc(Cl)cc1)[n+]1ccccc13 (stereo not given)
inactive: dose: 75.0 mg/kg/injection, schedule: Q01DX001 (ip), vehicle: other 96 % of control | dose: 150.0 mg/kg/injection, schedule: Q01DX001 (ip), vehicle: other 103 % of control

CC(C)(c1ccc(OCC2CO2)cc1)c1ccc(OCC2CO2)cc1 (stereo not given)
inactive: [16] 101 % of control | [17] 109 % of control | [18] 96 % of control

COc1cc2c3c(c1)C(=O)CCN3CCC2
inactive: [11] 93 % of control | [13] 93 % of control

Cn1c(=O)c2[nH]c(CS(=O)(=O)Cc3nc4c([nH]3)c(=O)n(C)c(=O)n4C)nc2n(C)c1=O
inactive: dose: 50.0 mg/kg/injection, schedule: Q01DX001 (ip), vehicle: other 90 % of control | dose: 100.0 mg/kg/injection, schedule: Q01DX001 (ip), vehicle: other 101 % of control | dose: 200.0 mg/kg/injection, schedule: Q01DX001 (ip), vehicle: other 95 % of control | dose: 400.0 mg/kg/injection, schedule: Q01DX001 (ip), vehicle: other 92 % of control

O=C(OCn1ncc2ccc([N+](=O)[O-])cc21)c1ccc(Cl)c(Cl)c1
inactive: [19] 101 % of control | [20] 93 % of control | [21] 95 % of control

COC(=O)c1ncccc1C(=O)O
inactive: dose: 50.0 mg/kg/injection, schedule: Q01DX009 (ip), vehicle: saline with Tween-80 96 % of control | [4] 93 % of control

C[C@]12CC[C@H](OC3OC(CO)C(O)C(O)C3O)C[C@H]1CC[C@@H]1[C@@H]2CC[C@]2(C)[C@@H](C3=CCOC3=O)CC[C@]12O (stereo not given in full)
inactive: dose: 0.5 mg/kg/injection, schedule: Q01DX001 (ip), vehicle: saline 103 % of control | dose: 0.5 mg/kg/injection, schedule: Q01DX010 (ip), vehicle: saline 98 % of control | dose: 1.0 mg/kg/injection, schedule: Q01DX001 (ip), vehicle: saline 105 % of control | dose: 1.0 mg/kg/injection, schedule: Q01DX010 (ip), vehicle: saline 107 % of control | dose: 2.0 mg/kg/injection, schedule: Q01DX001 (ip), vehicle: saline 105 % of control | dose: 2.0 mg/kg/injection, schedule: Q01DX010 (ip), vehicle: saline 107 % of control | dose: 4.0 mg/kg/injection, schedule: Q01DX001 (ip), vehicle: saline 103 % of control | dose: 8.0 mg/kg/injection, schedule: Q01DX001 (ip), vehicle: saline 103 % of control | dose: 16.0 mg/kg/injection, schedule: Q01DX001 (ip), vehicle: saline 108 % of control

N#Cc1nn(C2OC(CO)C(O)C2O)c2ncnc(N)c12 (stereo not given)
inactive: dose: 25.0 mg/kg/injection, schedule: Q01DX009 (ip), vehicle: saline 110 % of control | dose: 50.0 mg/kg/injection, schedule: Q01DX005 (ip), vehicle: saline 117 % of control | dose: 50.0 mg/kg/injection, schedule: Q01DX009 (ip), vehicle: saline 114 % of control | dose: 100.0 mg/kg/injection, schedule: Q01DX005 (ip), vehicle: saline 97 % of control

Cc1ccccc1NP1(=O)OCCCN1Cc1ccc(Cl)c(Cl)c1 (stereo not given)
inactive: dose: 50.0 mg/kg/injection, schedule: Q01DX001 (ip), vehicle: carboxymethylcellulose (CMC) 98 % of control | [19] 98 % of control | [20] 98 % of control | [21] 93 % of control

COc1ccc(-c2oc3cc(OC)ccc3c(=O)c2O)cc1
inactive: dose: 50.0 mg/kg/injection, schedule: Q01DX001 (ip), vehicle: saline 106 % of control | [16] 98 % of control | [17] 104 % of control | [18] 98 % of control

Cc1cc(C(=O)CCl)c(CN2C(=O)c3ccccc3C2=O)c(=O)n1C
inactive: [4] 98 % of control | [5] 108 % of control | [6] 100 % of control | [7] 105 % of control | [8] 92 % of control | [9] 110 % of control
